From US11421278B2, “Method to monitor pharmacodynamic responses mediated by in vivo administration of glucocorticoids” (BRISTOL-MYERS SQUIBB COMPANY, priority 2017, dated 2022)

Experiments:
[1] = system: GC gene signature in whole blood; test: GC gene signature in baseline samples of the abatacept SLE phase II trial by reported prednisone dose; format: in vivo, human; settings: SLE patients, dose high (>30 mg), medium (10-30 mg), low (<10 mg) (FIG. 4B)
Description: To determine if the glucocorticoid signature could differentiate between patients based on treatment status, expression of the signature in cross-sectional cohorts of patients with SLE or RA were analyzed. Relative to either normal healthy controls or patients treated with other standard-of-care medications, the patients with SLE or RA who were prescribed glucocorticoids had elevated signature scores (FIG. 4A). While the glucocorticoid signatures were elevated, there was significant inter-patient variability in the signature scores. Baseline samples from a phase II study of abatacept in SLE was analyzed (Fleishaker D L, et. al., BMC Musculoskelet Disord 2016; 17:29) for expression of the glucocorticoid gene signature (FIG. 4B). […] However, there was again significant inter-patient variability in glucocorticoid gene signature scores in all groups. This could reflect steroid resistance in some patients or compliance issues with some patients.
Baseline PAXgene collections and complete blood counts were obtained from 144 adults with SLE meeting the criteria of a British Isles Lupus Assessment Group (BILAG) score of A or B. The population at baseline consisted of 53% of patients with polyarthritis, 35% with discoid lupus, and 12% with serositis. […]

[2] = system: peripheral blood mononuclear cells (PBMCs); test: Gene expression profiling of PBMCs cultured with prednisolone or DMSO (Affymetrix); format: cell-based, human; settings: 1 μM prednisolone, 6 hours
Description: In order to monitor glucocorticoid-dependent responses in peripheral blood, genes modulated by prednisolone in human PBMCs were identified. PBMCs from 10 independent normal healthy volunteer donors were treated with either DMSO control or 1 μM prednisolone for 6 hours.
Lymphocytes were isolated from the blood of 10 independent donors using Ficoll gradient centrifugation. Cells were cultured at 5 million lymphocytes/well of a 96-well flat-bottom block plate (Qiagen, Hilden, Germany) in 500 μl assay media (RPMI-1640 with GlutaMAX, 10% charcoal-stripped fetal bovine serum; Gibco Laboratories, Gaithersburg, Md., USA). Cells were cultured for 6 hours with either dimethyl sulfoxide (DMSO) vehicle or 1 μM prednisolone. After 6 hours, cells were pelleted and resuspended in 1 ml nucleic acid purification lysis solution (Applied Biosystems, Foster City, Calif., USA) diluted 1:2 with calcium and magnesium-free phosphate-buffered saline (Invitrogen, Carlsbad, Calif., USA). Cells were incubated in lysis buffer for 10 min at room temperature followed by storage at −80° C. RNA was isolated using the Qiagen RNeasy isolation kit according to manufacturer's instructions. […]

whole blood = test: Whole blood cultured in vitro, GC gene signature (ssGSEA) score; format: cell-based, human
Source text: Many of these genes were known glucocorticoid-regulated genes (Chinenov Y, et. al., BMC Genomics 2014; 15:656). […] Network analysis of the regulated genes indicated enrichment for immune-response pathways. Single-sample gene set enrichment analysis (ssGSEA) algorithm was used to generate a composite score (or gene signature) for enrichment of these genes in the transcriptomes of individual samples (Barbie D A, et. al. Nature 2009; 462:108-12).
For profiling of whole blood, anticoagulant citrate dextrose solution A-containing whole blood from 4 normal healthy volunteers was cultured with either DMSO vehicle, 200 nM prednisolone, 1 μM prednisolone, 5 μM prednisolone, 5 μM GR modulators BMS-791826, or 10 μM BMS-776532 for 5 hours, followed by transfer to a PAXgene tube. Total RNA was isolated, and then treated with DNase I and cleaned up using a Qiagen RNeasy MinElute Cleanup Kit. RNA concentrations were determined using NanoDrop (Thermo Fisher Scientific, Waltham, Mass., USA) and RNA quality was evaluated using the Experion electrophoresis system (Bio-Rad Laboratories, Hercules, Calif., USA). All target labeling reagents were purchased from Affymetrix (West Sacramento, Calif., USA).
Double-stranded cDNAs were synthesized from 1 μg of total RNA through reverse transcription with an oligo-dT primer containing the T7 RNA polymerase promoter and double-strand conversion using the cDNA Synthesis System (Invitrogen, Carlsbad, Calif., USA). Biotin-labeled cRNA was generated from the cDNA and used to probe a Human Genome HT_HG-U133A plate (Affymetrix, Sunnyvale, Calif., USA), consisting of 96 single HG-U133A arrays in a 96-well plate. All cDNA and cRNA target preparation steps were processed on a Caliper GeneChip Array Station from Affymetrix. Array hybridization, washing, and scanning were performed according to the manufacturer's recommendations. […]

[3] = system: GC gene signature in whole blood; test: In vivo GC gene signature kinetics, Prednisoline in Healthy Male Cohort 1; parameters: species or system human
Description: (§1) Since the glucocorticoid (GC) signature accurately captured glucocorticoid receptor (GR) agonist activity in vitro, the behavior of the GC gene signature in vivo was tested. Normal healthy volunteers (NHV) were dosed with placebo, 10 mg prednisolone, or 150 or 300 mg GR modulator BMS-791826. Blood was drawn before and 4 hours post-dosing, and RNA was analyzed by Affymetrix gene expression profiling. […] To address the kinetics of the GC gene signature response, whole blood RNA profiles from NHVs who were administered different doses of prednisolone was analyzed. […] For all but the highest dose of prednisolone, GC gene signature scores had returned to baseline levels by 8 hours post-dose. The signature score was at baseline levels in all groups by 48 hours post-dosing.
(§2) To score an individual sample by the enrichment level of GC gene signatures, we adapted the single-sample gene set enrichment analysis (ssGSEA) algorithm (Barbie D A, et. al., Nature 2009; 462:108-12) to generate a composite score, which was implemented using the Gene Set Variation Analysis package in R (version 3.4.0, Hanzelmann S, et. al., BMC Bioinformatics 2013; 14:7). The algorithm was modified so that enrichment scores fell between −1 and 1, representing the lowest to the highest possible rankings of GC genes in the transcriptome.
Male normal healthy volunteers were randomly assigned (6 participants/group) to receive daily doses of 5, 10, or 30 mg prednisolone for 7 days. Two participants received placebo. PAXgene tubes were collected before dosing and at 2, 4, 8, 48, 144, and 216 hours post-dose.

[4] = system: glucocorticoid-regulated genes in whole blood; test: Whole blood induction of single genes, prednisolone versus placebo, Prednisoline in Healthy Male cohort 2; format: in vivo, human
Source text: Further refinement of the 64 member gene signature would facilitate implementation in the clinic. […] The list was further filtered for detectable expression in the abatacept SLE trial. Of the initial 64 genes, 18 (FKBP5, ECHDC3, IL1R2, ZBTB16, IRS2, IRAK3, ACSL1, DUSP1, PHC2, TLR2, TSC22D3, SLA, CRISPLD2, MAN2A2, FAR2, CEBPD, SPTLC2, HSPA6) met these criteria. The top 3 genes (FKBP5, ECHDC3 and IL1R2), top 6 genes (FKBP5, ECHDC3 IL1R2, ZBTB16, IRS2, IRAK3) and top 8 genes (FKBP5, ECHDC3, IL1R2, ZBTB16, IRS2, IRAK3, ACSL1, DUSP1) from the list were then used to calculate ssGSEA scores.
CEL files from the Affymetrix Array Station were processed and normalized using the Robust Multi-Array Average (RMA) algorithm (Gautier I, et. al., Bioinformatics 2004; 20:307-15) using the “Affy” package in R (version 3.2.1; 16) and Bioconductor (Gentleman R C, et. al. Genome Biol. 2004, 5 (10):R80) with custom CDF files from BrainArray (version 18.0.0; Dai M, et. al., Nucleic Acids Res 2005; 33:e175). Differential gene expression analysis was run to compare gene expression levels in prednisolone-treated versus control samples, using a moderated t-test (Ritchie M E, et. al., Nucleic Acids Res 2015; 43:e47) in Array Studio (OmicSoft, Cary, N.C., USA). P values were adjusted using the multiple test correction method which is also called false discovery rate (FDR, Benjamini Y, et. al., J. Royal Statistical Soc., Series B 1995; 57:289).
Male normal healthy volunteers were randomly assigned to receive either a placebo of polyethylene glycol (PEG)-400 solution (4 participants); a single daily oral dose of GR modulator BMS-791826 (150 or 300 mg) as a PEG-400 solution (6 participants/dose); or a single daily dose of 10 mg prednisolone (4 participants) for 3 consecutive days. PAXgene tubes were collected before dosing and at 4 hours post-dose on day 1.

[5] = system: GC gene signature in whole blood; test: In vivo GC gene signature, Prednisoline in Healthy Male Cohort 2; parameters: species or system human; settings: normal healthy volunteers, oral, 10 mg prednisolone or 150 or 300 mg BMS-791826, 4 hours post-dosing, versus pre-dose and placebo (FIG. 3A)
Description: as §1
as §2, with “transcriptome. […]” for “transcriptome.”

C[C@]12C=CC(=O)C=C1CC[C@@H]1[C@@H]2C(=O)C[C@@]2(C)[C@H]1CC[C@]2(O)C(=O)CO [prednisone]
glucocorticoid gene signature scores versus reported dose [1]: generally aligned well with reported prednisone dose

C[C@]12C=CC(=O)C=C1CC[C@@H]1[C@@H]2[C@@H](O)C[C@@]2(C)[C@H]1CC[C@]2(O)C(=O)CO [prednisolone]
fold change of upregulated genes versus vehicle ([2]; FDR-adjusted P ≤0.05, genes of FIG. 1A): > 2 fold | fold change of downregulated genes versus vehicle ([2]; FDR-adjusted P ≤0.05, genes of FIG. 1B): > 2 fold | glucocorticoid gene signature score, rank order (whole blood; 5 μM prednisolone, 5 μM BMS-791826, 10 μM BMS-776532, 5 hours (FIG. 2E)): prednisolone>BMS-791826>BMS-776532 | ssGSEA score for the upregulated genes (whole blood; whole blood, different concentrations of prednisolone, 5 hours (FIG. 1C)): increased dose dependently | expression of the downregulated genes (ssGSEA score) (whole blood; whole blood, different concentrations of prednisolone, 5 hours (FIG. 1D)): decreased in a dose-dependent manner | time of peak of GC gene signature score post-dose ([3]; 5, 10 or 30 mg prednisolone): 4 h | time by which GC gene signature scores had returned to baseline ([3]; all but the highest dose of prednisolone): ≤ 8 h | time by which signature score was at baseline levels ([3]; all groups): ≤ 48 h | GC gene signature score, dose dependence ([3]; normal healthy volunteers, 5, 10 or 30 mg prednisolone (FIG. 3B)): increased dose dependently | logFC ACSL1 [4]: 1.43 | logFC CEBPD [4]: 0.86 | logFC CRISPLD2 [4]: 0.94 | logFC DUSP1 [4]: 1.37 | logFC ECHDC3 [4]: 2.34 | logFC FAR2 [4]: 0.88 | logFC FKBP5 [4]: 2.85 | logFC HSPA6 [4]: 0.67 | logFC IRAK3 [4]: 1.45 | logFC IRS2 [4]: 1.75 | logFC MAN2A2 [4]: 0.91 | logFC PHC2 [4]: 1.15 | logFC SLA [4]: 0.98 | logFC SPTLC2 [4]: 0.75 | logFC TLR2 [4]: 1.11 | logFC TSC22D3 [4]: 1.08 | logFC ZBTB16 [4]: 2.04 | GC signature score [5]: significantly elevated
